Results published in US20120157439A1, “RAF INHIBITOR COMPOUNDS AND METHODS OF USE THEREOF” (GENENTECH, INC., priority 2009, published 2012).
Like-named read-outs stand apart in the source and are kept apart here.

Target: T1, V600E full-length B-Raf (Homo sapiens, UniProt P15056, V600E)
T1 construct: 1 μM FSBA-MEK and 20 nM V600E full-length B-Raf; made in house; host or cells: sf9 insect cells (baculovirus)
Test: B-Raf IC50 Assay (B-RAF V600E inhibition assay, Example A)
Type: biochemical
From the text: Determining the activity of Raf in the sample is possible by a number of direct and indirect detection methods (US 2004/0082014). Activity of human recombinant B-Raf protein may be assessed in vitro by assay of the incorporation of radio labeled phosphate to recombinant MAP kinase (MEK), a known physiologic substrate of B-Raf, according to US 2004/0127496 and WO 03/022840. The activity/inhibition of V600E full-length B-Raf was estimated by measuring the incorporation of radio labeled phosphate from [γ-33P]ATP into FSBA-modified wild-type MEK (see Example A).
Activity of human recombinant B-Raf protein may be assessed in vitro by assay of the incorporation of radio labeled phosphate to recombinant MAP kinase (MEK), a known physiologic substrate of B-Raf, according to U.S. Patent Appl. Publication No. 2004/0127496 and WO 03/022840. Catalytically active human recombinant B-Raf protein is obtained by purification from sf9 insect cells infected with a human B-Raf recombinant baculovirus expression vector.
The activity/inhibition of V600E full-length B-Raf was estimated by measuring the incorporation of radio labeled phosphate from [γ-33P]ATP into FSBA-modified wild-type MEK. The […] assay mixtures contained 25 mM Na Pipes, pH 7.2, 100 mM KCl, 10 mM MgCl2, 5 mM β-glycerophosphate, 100 μM Na Vanadate, 4 μM ATP, 500 nCi [γ-33P]ATP, 1 μM FSBA-MEK and 20 nM V600E full-length B-Raf. Incubations were carried out at 22° C. in a Costar 3365 plate (Corning). Prior to the assay, the B-Raf and FSBA-MEK were preincubated together in assay buffer at 1.5× (20 μL of 30 nM and 1.5 μM, respectively) for 15 minutes, and the assay was initiated by the addition of 10 μL of […]. Following the 60-minute incubation, the assay mixtures were quenched by the addition of 100 μL of 25% TCA, the plate was mixed on a rotary shaker for 1 minute, and the product was captured on a Perkin-Elmer GF/B filter plate using a Tomtec Mach III Harvester. After sealing the bottom of the plate, 35 μL of Bio-Safe II (Research Products International) scintillation cocktail were added to each well and the plate was top-sealed and counted in a Topcount NXT (Packard).

[1] = B-Raf V600E assay of Example A: less than 100 nM, read-out: IC50
[2] = B-Raf V600E assay of Example A: less than about 1 μM, read-out: IC50
[3] = incorporation of radio labeled phosphate from [γ-33P]ATP into FSBA-modified wild-type MEK, 4 μM ATP, 20 nM V600E full-length B-Raf, 60-minute incubation, 22° C., read-out: BRAF V600E IC50

T1 sequence (P15056 whole entry V600E): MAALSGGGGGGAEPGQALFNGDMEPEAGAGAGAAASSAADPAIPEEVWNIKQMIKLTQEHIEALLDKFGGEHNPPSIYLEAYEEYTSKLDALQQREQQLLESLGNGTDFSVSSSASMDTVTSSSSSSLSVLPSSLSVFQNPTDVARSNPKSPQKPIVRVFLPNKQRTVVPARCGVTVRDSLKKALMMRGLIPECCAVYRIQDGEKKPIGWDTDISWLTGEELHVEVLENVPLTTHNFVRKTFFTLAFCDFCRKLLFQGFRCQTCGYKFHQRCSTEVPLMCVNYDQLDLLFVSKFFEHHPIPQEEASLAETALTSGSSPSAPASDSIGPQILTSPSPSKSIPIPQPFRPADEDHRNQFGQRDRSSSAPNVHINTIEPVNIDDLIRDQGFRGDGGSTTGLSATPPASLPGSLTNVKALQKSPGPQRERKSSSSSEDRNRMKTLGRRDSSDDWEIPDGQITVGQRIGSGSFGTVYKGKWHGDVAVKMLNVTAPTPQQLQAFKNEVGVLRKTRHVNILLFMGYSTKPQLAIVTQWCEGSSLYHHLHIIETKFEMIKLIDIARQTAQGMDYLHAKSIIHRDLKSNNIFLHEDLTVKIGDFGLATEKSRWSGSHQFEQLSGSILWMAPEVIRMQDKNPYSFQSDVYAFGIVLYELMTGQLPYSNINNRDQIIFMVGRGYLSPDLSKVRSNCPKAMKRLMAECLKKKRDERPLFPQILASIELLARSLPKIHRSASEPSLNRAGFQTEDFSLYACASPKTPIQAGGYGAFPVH

Structure (SMILES)	IC50 [1] [nM]	IC50 [2] [nM]	IC50 [3] [nM]
CCCS(=O)(=O)Nc1cccc(NC(=O)c2csc3c(N)ncnc23)c1Cl [Example 25, 4-Amino-thieno[3,2-d]pyrimidine-7-carboxylic acid[2-chloro-3-(propane-1-sulfonylamino)-phenyl]-amide]	< 100	< 1000	7.2
CCCS(=O)(=O)Nc1cccc(NC(=O)c2csc3c(N)ncnc23)c1F [Example 26, 4-Amino-thieno[3,2-d]pyrimidine-7-carboxylic acid[2-fluoro-3-(propane-1-sulfonylamino)-phenyl]-amide]	< 100	< 1000	20
CCCS(=O)(=O)Nc1ccc(F)c(NC(=O)c2csc3c(N)ncnc23)c1 [Example 27, 4-Amino-thieno[3,2-d]pyrimidine-7-carboxylic acid[2-fluoro-5-(propane-1-sulfonylamino)-phenyl]-amide]	–	< 1000	125
Nc1ncnc2c(C(=O)Nc3c(F)ccc(NS(=O)(=O)N4CCCC4)c3F)csc12 [Example 28, 4-Amino-thieno[3,2-d]pyrimidine-7-carboxylic acid[2,6-difluoro-3-(pyrrolidine-1-sulfonylamino)-phenyl]-amide]	< 100	< 1000	11.6
CN(C)S(=O)(=O)Nc1ccc(F)c(NC(=O)c2csc3c(N)ncnc23)c1F [Example 29, 4-Amino-N-(3-(N,N-dimethylsulfamoylamino)-2,6-difluorophenyl)thieno[3,2-d]pyrimidine-7-carboxamide]	< 100	< 1000	88
CCCS(=O)(=O)Nc1ccc(F)c(NC(=O)c2nsc3c(N)ncnc23)c1F [Example 30, 7-Amino-isothiazolo[4,5-d]pyrimidine-3-carboxylic acid [2,6-difluoro-3-(propane-1-sulfonylamino)-phenyl]-amide]	< 100	< 1000	1.2
Nc1ncnc2c(C(=O)Nc3c(F)ccc(NS(=O)(=O)CCCF)c3F)nsc12 [Example 31, 7-Amino-isothiazolo[4,5-d]pyrimidine-3-carboxylic acid [2,6-difluoro-3-(3-fluoro-propane-1-sulfonylamino)-phenyl]-amide]	< 100	< 1000	0.82
Nc1ncnc2c(C(=O)Nc3c(Cl)ccc(NS(=O)(=O)CCCF)c3F)nsc12 [Example 32, 7-Amino-isothiazolo[4,5-d]pyrimidine-3-carboxylic acid [6-chloro-2-fluoro-3-(3-fluoro-propane-1-sulfonylamino)-phenyl]-amide]	< 100	< 1000	0.18
CCCS(=O)(=O)Nc1cccc(NC(=O)c2nsc3c(N)ncnc23)c1C#N [Example 33, 7-Amino-isothiazolo[4,5-d]pyrimidine-3-carboxylic acid [2-cyano-3-(propane-1-sulfonylamino)-phenyl]-amide]	< 100	< 1000	0.38
CCCS(=O)(=O)Nc1ccc(F)c(NC(=O)c2snc3c(N)ncnc23)c1F [Example 34, 7-Amino-isothiazolo[4,3-d]pyrimidine-3-carboxylic acid [2,6-difluoro-3-(propane-1-sulfonylamino)-phenyl]-amide]	< 100	< 1000	5
CCCS(=O)(=O)Nc1ccc(F)c(NC(=O)c2snc3c(NCC)ncnc23)c1F [Example 35, 7-Ethylamino-isothiazolo[4,3-d]pyrimidine-3-carboxylic acid [2,6-difluoro-3-(propane-1-sulfonylamino)-phenyl]-amide]	–	< 1000	105
CCCS(=O)(=O)Nc1ccc(F)c(NC(=O)c2snc3c(NC4CC4)ncnc23)c1F [Example 36, 7-(Cyclopropylamino)-N-(2,6-difluoro-3-(propylsulfonamido)phenyl)isothiazolo[4,3-d]pyrimidine-3-carboxamide]	–	< 1000	194

More lines, now with the values ahead:

IC50 [1] [nM]	IC50 [2] [nM]	IC50 [3] [nM]	Structure (SMILES)
< 100	< 1000	9.2	CCCS(=O)(=O)Nc1ccc(F)c(NC(=O)c2csc3c(NOC)ncnc23)c1Cl [Example 37, 4-Methoxyamino-thieno[3,2-d]pyrimidine-7-carboxylic acid [2-chloro-6-fluoro-3-(propane-1-sulfonylamino)-phenyl]-amide]
< 100	< 1000	46.5	CCCS(=O)(=O)Nc1ccc(F)c(NC(=O)c2csc3c(C)ncnc23)c1Cl [Example 38, 4-Methyl-thieno[3,2-d]pyrimidine-7-carboxylic acid [2-chloro-6-fluoro-3-(propane-1-sulfonylamino)-phenyl]-amide]
< 100	< 1000	1.11	Cc1ncnc2c(C(=O)Nc3c(Cl)ccc(NS(=O)(=O)CCCF)c3Cl)csc12 [Example 39, 4-Methyl-thieno[3,2-d]pyrimidine-7-carboxylic acid [2,6-dichloro-3-(3-fluoro-propane-1-sulfonylamino)-phenyl]-amide]
< 100	< 1000	85.5	CCCS(=O)(=O)Nc1ccc(F)c(NC(=O)c2csc3c(C)ncnc23)c1F [Example 40, 4-Methyl-thieno[3,2-d]pyrimidine-7-carboxylic acid [2,6-difluoro-3-(propane-1-sulfonylamino)-phenyl]-amide]
–	< 1000	112	CCCS(=O)(=O)Nc1ccc(F)c(NC(=O)c2csc3c(CC)ncnc23)c1F [Example 41, 4-Ethyl-thieno[3,2-d]pyrimidine-7-carboxylic acid [2,6-difluoro-3-(propane-1-sulfonylamino)-phenyl]-amide]
< 100	< 1000	26	CCCS(=O)(=O)Nc1ccc(F)c(NC(=O)c2csc3c(C(F)F)ncnc23)c1F [Example 42, 4-Difluoromethyl-thieno[3,2-d]pyrimidine-7-carboxylic acid [2,6-difluoro-3-(propane-1-sulfonylamino)-phenyl]-amide]
< 100	< 1000	1.9	CCCS(=O)(=O)Nc1ccc(F)c(NC(=O)c2csc3c(NC4CC4)ncnc23)c1Cl [Example 43, 4-Cyclopropylamino-thieno[3,2-d]pyrimidine-7-carboxylic acid [2-chloro-6-fluoro-3-(propane-1-sulfonylamino)-phenyl]-amide]
< 100	< 1000	8.7	CCCS(=O)(=O)Nc1ccc(F)c(NC(=O)c2csc3c(NCC)ncnc23)c1Cl [Example 44, 4-Ethylamino-thieno[3,2-d]pyrimidine-7-carboxylic acid [2-chloro-6-fluoro-3-(propane-1-sulfonylamino)-phenyl]-amide]
< 100	< 1000	4.1	CCCNc1ncnc2c(C(=O)Nc3c(F)ccc(NS(=O)(=O)CCC)c3Cl)csc12 [Example 45, 4-Propylamino-thieno[3,2-d]pyrimidine-7-carboxylic acid [2-chloro-6-fluoro-3-(propane-1-sulfonylamino)-phenyl]-amide]
< 100	< 1000	49.6	CCCS(=O)(=O)Nc1ccc(F)c(NC(=O)c2csc3c(NC)ncnc23)c1F [Example 46, 4-Methylamino-thieno[3,2-d]pyrimidine-7-carboxylic acid [2,6-difluoro-3-(propane-1-sulfonylamino)-phenyl]-amide]
< 100	< 1000	4.7	CCCS(=O)(=O)Nc1ccc(F)c(NC(=O)c2csc3c(NC4CC4)ncnc23)c1F [Example 47]
< 100	< 1000	11.4	CCCS(=O)(=O)Nc1ccc(F)c(NC(=O)c2csc3c(NCC)ncnc23)c1F [Example 48, 4-Ethylamino-thieno[3,2-d] pyrimidine-7-carboxylic acid [2,6-difluoro-3-(propane-1-sulfonylamino)-phenyl]-amide]
< 100	< 1000	10.9	CCCNc1ncnc2c(C(=O)Nc3c(F)ccc(NS(=O)(=O)CCC)c3F)csc12 [Example 49, 4-Propylamino-thieno[3,2-d] pyrimidine-7-carboxylic acid [2,6-difluoro-3-(propane-1-sulfonylamino)-phenyl]-amide]
